Assay results taken from the NIST ThermoML archive (doi:10.1016/j.jct.2007.05.008).

Test: mn = molality of the nth substance listed, in mol/kg
Conditions: 350 kPa, Liquid; for apparent molar heat capacity: Extra sensitive DSC

[I-].[K+] [potassium iodide] + O
Conditions | apparent molar heat capacity [J/K/mol] | mass density [kg/m3]
278.15 K, m1 = 0.0151 | – | 1001.67
278.15 K, m1 = 0.0299 | – | 1003.68
278.15 K, m1 = 0.0701 | – | 1008.43
278.15 K, m1 = 0.2001 | – | 1024.58
278.15 K, m1 = 0.5376 | – | 1064.35
278.15 K, m1 = 0.6957 | – | 1081.95
278.15 K, m1 = 1.001 | – | 1117.05
278.15 K, m1 = 2.5 | – | 1271.29
278.15 K, m1 = 4.636 | – | 1453.94
278.15 K, m1 = 5.479 | – | 1515.42
278.15 K, m1 = 7.501 | – | 1648.17
283.15 K, m1 = 0.0151 | – | 1001.47
283.15 K, m1 = 0.0299 | – | 1003.4
283.15 K, m1 = 0.0701 | – | 1008.17
283.15 K, m1 = 0.2001 | – | 1024.09
283.15 K, m1 = 0.5376 | – | 1063.61
283.15 K, m1 = 0.6957 | – | 1081.08
283.15 K, m1 = 1.001 | – | 1115.82
283.15 K, m1 = 2.5 | – | 1268.99
283.15 K, m1 = 4.636 | – | 1450.65
283.15 K, m1 = 5.479 | – | 1512.83
283.15 K, m1 = 7.501 | – | 1645.23
288.15 K, m1 = 0.0151 | – | 1000.88
288.15 K, m1 = 0.0299 | – | 1002.77
288.15 K, m1 = 0.0701 | – | 1007.55
288.15 K, m1 = 0.2001 | – | 1023.33
288.15 K, m1 = 0.5376 | – | 1062.62
288.15 K, m1 = 0.6957 | – | 1080.04
288.15 K, m1 = 1.001 | – | 1114.31
288.15 K, m1 = 2.5 | – | 1266.38
288.15 K, m1 = 4.636 | – | 1448.01
288.15 K, m1 = 5.479 | – | 1510.11
288.15 K, m1 = 7.501 | – | 1642.29
298.15 K, m1 = 0.0151 | – | 998.82
298.15 K, m1 = 0.0299 | – | 1000.63
298.15 K, m1 = 0.0701 | – | 1005.39
298.15 K, m1 = 0.2001 | – | 1021
298.15 K, m1 = 0.5376 | – | 1059.83
298.15 K, m1 = 0.6957 | – | 1077.25
298.15 K, m1 = 1.001 | – | 1110.96
298.15 K, m1 = 2.5 | – | 1261.31
298.15 K, m1 = 4.636 | – | 1441.32
298.15 K, m1 = 5.479 | – | 1503.36
298.15 K, m1 = 7.501 | – | 1635.01
303.15 K, m1 = 5.479 | 1.3 | –
308.15 K, m1 = 0.0151 | – | 995.79
308.15 K, m1 = 0.0299 | – | 997.53
308.15 K, m1 = 0.0701 | – | 1002.28
308.15 K, m1 = 0.2001 | – | 1017.73
308.15 K, m1 = 0.5376 | – | 1056.13
308.15 K, m1 = 0.6957 | – | 1073.61
308.15 K, m1 = 1.001 | – | 1106.78
308.15 K, m1 = 2.5 | – | 1255.84
308.15 K, m1 = 4.001 | 0.4 | –
308.15 K, m1 = 4.636 | – | 1434.16
308.15 K, m1 = 5.479 | 1.8 | 1495.89
308.15 K, m1 = 7.501 | – | 1626.88
313.15 K, m1 = 4.001 | 1.4 | –
313.15 K, m1 = 5.479 | 1.7 | –
318.15 K, m1 = 0.0151 | – | 991.94
318.15 K, m1 = 0.0299 | – | 993.68
318.15 K, m1 = 0.0701 | – | 998.38
318.15 K, m1 = 0.2001 | – | 1013.67
318.15 K, m1 = 0.5376 | – | 1051.77
318.15 K, m1 = 0.6957 | – | 1069.13
318.15 K, m1 = 1.001 | – | 1101.94
318.15 K, m1 = 2.5 | – | 1249.89
318.15 K, m1 = 4.001 | 1.9 | –
318.15 K, m1 = 4.636 | – | 1426.64
318.15 K, m1 = 5.479 | 1.2 | 1488.09
318.15 K, m1 = 7.501 | – | 1618.36
323.15 K, m1 = 4.001 | 2 | –
323.15 K, m1 = 5.479 | 0.4 | –
328.15 K, m1 = 0.0151 | – | 987.43
328.15 K, m1 = 0.0299 | – | 989.17
328.15 K, m1 = 0.0701 | – | 993.85
328.15 K, m1 = 0.2001 | – | 1008.93
328.15 K, m1 = 0.5376 | – | 1046.78
328.15 K, m1 = 0.6957 | – | 1064
328.15 K, m1 = 1.001 | – | 1096.55
328.15 K, m1 = 2.5 | – | 1243.46
328.15 K, m1 = 4.001 | 1.7 | –
328.15 K, m1 = 4.636 | – | 1418.83
328.15 K, m1 = 5.479 | – | 1479.85
328.15 K, m1 = 7.501 | – | 1609.25
333.15 K, m1 = 4.001 | 1.3 | –
338.15 K, m1 = 0.0151 | – | 982.32
338.15 K, m1 = 0.0299 | – | 984.03
338.15 K, m1 = 0.0701 | – | 988.65
338.15 K, m1 = 0.2001 | – | 1003.58
338.15 K, m1 = 0.5376 | – | 1041.14
338.15 K, m1 = 0.6957 | – | 1058.16
338.15 K, m1 = 1.001 | – | 1090.66
338.15 K, m1 = 2.5 | – | 1236.58
338.15 K, m1 = 4.001 | 0.6 | –
338.15 K, m1 = 4.636 | – | 1410.65
338.15 K, m1 = 5.479 | – | 1471.57
338.15 K, m1 = 7.501 | – | 1600.65
348.15 K, m1 = 0.0151 | – | 976.56
348.15 K, m1 = 0.0299 | – | 978.32
348.15 K, m1 = 0.0701 | – | 982.92
348.15 K, m1 = 0.2001 | – | 997.75
348.15 K, m1 = 0.5376 | – | 1035.02
348.15 K, m1 = 0.6957 | – | 1051.97
348.15 K, m1 = 1.001 | – | 1084.3
348.15 K, m1 = 2.5 | – | 1229.37
348.15 K, m1 = 4.636 | – | 1402.31
348.15 K, m1 = 5.479 | – | 1463.16
348.15 K, m1 = 7.501 | – | 1591.74
358.15 K, m1 = 0.0151 | – | 970.33
358.15 K, m1 = 0.0299 | – | 972.11
358.15 K, m1 = 0.0701 | – | 976.68
358.15 K, m1 = 0.2001 | – | 991.55
358.15 K, m1 = 0.5376 | – | 1028.65
358.15 K, m1 = 0.6957 | – | 1045.42
358.15 K, m1 = 1.001 | – | 1077.52
358.15 K, m1 = 2.5 | – | 1221.83
358.15 K, m1 = 4.636 | – | 1393.66
358.15 K, m1 = 5.479 | – | 1455.05
358.15 K, m1 = 7.501 | – | 1583.19
368.15 K, m1 = 0.0151 | – | 963.58
368.15 K, m1 = 0.0299 | – | 965.34
368.15 K, m1 = 0.0701 | – | 969.93
368.15 K, m1 = 0.2001 | – | 984.74
368.15 K, m1 = 0.5376 | – | 1021.81
368.15 K, m1 = 0.6957 | – | 1038.47
368.15 K, m1 = 1.001 | – | 1070.31
368.15 K, m1 = 2.5 | – | 1213.99
368.15 K, m1 = 4.636 | – | 1384.78
368.15 K, m1 = 5.479 | – | 1446.45
368.15 K, m1 = 7.501 | – | 1574.23
